By IC50 is commonly meant the point on the concentration scale where inhibition reaches its midpoint.

In US20240279233A1, “MACROCYCLIC TAK1 INHIBITORS” (Aqilion AB, priority 2021, published 2024) one finds IC50 data, which are given here for 22 compounds.

Read-outs that look alike come from different tables or passages of the source.

This assay concerns the target human recombinant TAK1-TAB1 Kinase (TAK1 (1-303) and TAB1 (437-end)) (Homo sapiens (Human), UniProt O43318). Kind of assay: TAK1 biochemical ADP-Glo kinase assay. The conditions noted are these: MBP substrate. On the procedure:
The usefulness of the example compounds of the invention as TAK1 inhibitors was evaluated in a biochemical ADP-Glo kinase assay. Assay kits from Promega Corporation V4089 were used according to manufacturer's instructions and adapted as outlined here. ADP-Glo Kinase Assay kit contains ADP-Glo Reagent, Kinase Detection Reagent, kinase detection buffer, ATP, and ADP. The Kinase Enzyme Systems include human recombinant TAK1-TAB1 Kinase (TAK1 (1-303) and TAB1 (437-end)), Native Swine Myelin Basic Protein (MBP) substrate, 5×kinase reaction buffer, and DTT.
Test compounds were prepared in 1:5 serial dilutions at 8 concentrations in DMSO from 10 mM stock solutions. An additional 20-fold dilution in 1× kinase reaction buffer (see below) was performed, yielding a final dilution series in kinase buffer with 5% DMSO (final concentration in assay from 20 μM to 0.26 nM, 1% DMSO). As controls, Takinib was prepared as positive control (3 μM final in assay), and DMSO without inhibitor served as negative control, at a final assay concentration of DMSO of 1%.
One μl of compound solution in 5% DMSO was added to each well in a 384 well microtiter plate (OptiPlate #6007290). Two μl TAK1-TAB1 (7.5 ng/μl) in lxkinase reaction buffer ([…] Tris base pH 7.5, 20 mM MgCl2, 50 μM DTT, 0.1 mg/ml BSA) was added and pre-incubated 10 min before adding 2 μl of a mixture of MBP substrate and ATP (0.25 μg/μL MBP/25 μM ATP or 0.25 μg/μL MBP/2.5 mM ATP) in 1× kinase reaction buffer (as above). The plate was subsequently incubated at room temperature for 1 hour. Then 5 μl ADP-Glo™ reagent from ADP-Glo™ kit (as above) was added and incubated for 40 min to stop the reaction and consume remaining ATP. Ten μl kinase detection substrate (dissolved in kinase detection buffer, both from ADP-Glo™ kit as above) was then added to convert ADP to ATP and detect ATP with luciferase/luciferin. The plate was incubated for 30 minutes at room temperature in dark before reading luminescence on an Envision (PerkinElmer) reader.
IC50 values of compounds of the invention were determined by the non-linear regression analysis of dose response curves.
In general terms: ADP-Glo turns the ADP formed in a reaction into a luminescent signal.

[1] abbreviates: 10 μM ATP, read-out: TAK1 Mean IC50 (nM) @ 10 μM ATP.
The mark [2] stands for this setting: 1 mM ATP, read-out: TAK1 Mean IC50 (nM) @ 1 mM ATP.

Sequence of human recombinant TAK1-TAB1 Kinase (TAK1 (1-303) and TAB1 (437-end)) (O43318 other isoform, or with tags, fused parts or gaps): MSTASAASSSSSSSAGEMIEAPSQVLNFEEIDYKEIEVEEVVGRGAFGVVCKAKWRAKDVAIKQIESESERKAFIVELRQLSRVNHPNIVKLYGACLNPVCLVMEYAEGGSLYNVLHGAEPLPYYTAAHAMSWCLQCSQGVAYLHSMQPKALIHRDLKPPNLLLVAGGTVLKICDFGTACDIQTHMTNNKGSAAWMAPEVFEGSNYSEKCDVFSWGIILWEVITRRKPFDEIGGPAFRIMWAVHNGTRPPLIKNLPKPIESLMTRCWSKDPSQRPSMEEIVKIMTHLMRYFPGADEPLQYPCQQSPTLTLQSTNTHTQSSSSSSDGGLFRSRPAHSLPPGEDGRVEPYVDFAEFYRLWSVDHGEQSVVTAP

On to `CC1CCCCNC(=O)c2cccc(c2)C(=O)/N=C2\Nc3cccc(C(=O)N4CC[C@@H](F)C4)c3N21` (single isomer, unassigned) [Example 93], for which the half-inhibitory concentration (IC50) under setting [1] is 6 nM.

On to `CC1CCCCNC(=O)c2nc(cs2)C(=O)/N=C2\Nc3cccc(C(=O)N(C)C)c3N21` (single isomer, unassigned) [Example 108, (1^2Z,4^2E)-N,N,5-trimethyl-2,11-dioxo-4^2,4^3-dihydro-4^1H-3,10-diaza-1(4,2)-thiazola-4(2,1)-benzo[d]imidazolacycloundecaphane-4^7-carboxamide], for which the IC50 under setting [2] was 23 nM.

`CC1CCCCNC(=O)c2nc(cs2)C(=O)/N=C2\Nc3cccc(C(=O)N(C)C)c3N21` (single isomer, unassigned) [Example 109, (1^2Z,4^2E)-N,N,5-trimethyl-2,11-dioxo-4^2,4^3-dihydro-4^1H-3,10-diaza-1(4,2)-thiazola-4(2,1)-benzo[d]imidazolacycloundecaphane-4^7-carboxamide]: the IC50 under setting [2] turned out to be 114 nM.

With `C[C@H]1CCCCNC(=O)c2cccc(c2)C(=O)/N=C2\Nc3cccc(C(=O)N4CCC5(CCO5)C4)c3N21` (single isomer, unassigned) [Example 120], the half-inhibitory concentration (IC50) was found to be 5 nM under setting [1] and 14 nM under setting [2].

`C[C@H]1CCCCNC(=O)c2cccc(c2)C(=O)/N=C2\Nc3cccc(C(=O)N4CCC5(CCO5)C4)c3N21` (single isomer, unassigned) [Example 121]: the IC50 under setting [1] turned out to be 5 nM and the 50% inhibitory concentration (IC50) under setting [2] worked out at 19 nM.

With `C[C@H]1CCCCNC(=O)c2cccc(c2)C(=O)/N=C2\Nc3ccnc(N4CCC(F)C4=O)c3N21` (single isomer, unassigned) [Example 126], the half-inhibitory concentration (IC50) under setting [1] was 4 nM and the IC50 under setting [2] worked out at 12 nM.

On to `C[C@H]1CCCCNC(=O)c2cccc(c2)C(=O)/N=C2\Nc3ccnc(N4CCC(F)C4=O)c3N21` (single isomer, unassigned) [Example 127], for which the IC50 came out at 5 nM under setting [1] and 18 nM under setting [2].

As to `Cc1nnc(-c2cccc3c2N2/C(=N/C(=O)c4cccc(c4)C(=O)NCCCCC2C)N3)o1` (single isomer, unassigned) [Example 132, (E)-11-methyl-1^7-(5-methyl-1,3,4-oxadiazol-2-yl)-1^2,1^3-dihydro-1^1H-2,6-diaza-1(2,1)-benzo[d]imidazola-4(1,3)-benzenacycloundecaphane-3,5-dione], the concentration for half-maximal inhibition (IC50) is 10 nM under setting [1] and 10 nM under setting [2].

Consider `Cc1nnc(-c2cccc3c2N2/C(=N/C(=O)c4cccc(c4)C(=O)NCCCCC2C)N3)o1` (single isomer, unassigned) [Example 133, (E)-11-methyl-1^7-(5-methyl-1,3,4-oxadiazol-2-yl)-1^2,1^3-dihydro-1^1H-2,6-diaza-1(2,1)-benzo[d]imidazola-4(1,3)-benzenacycloundecaphane-3,5-dione], for which the IC50 under setting [1] amounted to 10 nM and the IC50 under setting [2] came out at 12 nM.

Consider `CC1CCCCNC(=O)c2cccc(c2)C(=O)/N=C2\Nc3cccc(-c4nccn4C)c3N21` (single isomer, unassigned) [Example 135, (E)-11-methyl-1^7-(1-methyl-1H-imidazol-2-yl)-1^2,1^3-dihydro-1^1H-2,6-diaza-1(2,1)-benzo[d]imidazola-4(1,3)-benzenacycloundecaphane-3,5-dione], for which, under setting [1], the IC50 amounted to 6 nM.

`CC1CCCCNC(=O)c2cccc(c2)C(=O)/N=C2\Nc3cccc(-c4ncn(C(F)F)n4)c3N21` (single isomer, unassigned) [Example 137, (E)-1^7-(1-(difluoromethyl)-1H-1,2,4-triazol-3-yl)-11-methyl-1^2,1^3-dihydro-1^1H-2,6-diaza-1(2,1)-benzo[d]imidazola-4(1,3)-benzenacycloundecaphane-3,5-dione]: under setting [1], the half-maximal inhibitory concentration (IC50) amounted to 9 nM.

With `CC1CCCCNC(=O)c2cccc(c2)C(=O)/N=C2\Nc3cccc(-c4ncn(C(F)F)n4)c3N21` (single isomer, unassigned) [Example 138, (E)-1^7-(1-(difluoromethyl)-1H-1,2,4-triazol-3-yl)-11-methyl-1^2,1^3-dihydro-1^1H-2,6-diaza-1(2,1)-benzo[d]imidazola-4(1,3)-benzenacycloundecaphane-3,5-dione], under setting [1], the IC50 amounted to 8 nM.

`CC1CCCCNC(=O)c2cccc(c2)C(=O)/N=C2\Nc3cccc(-c4ncnn4C(F)F)c3N21` (single isomer, unassigned) [Example 139, (E)-1^7-(1-(difluoromethyl)-1H-1,2,4-triazol-5-yl)-11-methyl-1^2,1^3-dihydro-1^1H-2,6-diaza-1(2,1)-benzo[d]imidazola-4(1,3)-benzenacycloundecaphane-3,5-dione]: the concentration for half-maximal inhibition (IC50) under setting [2] worked out at 17 nM.

As to `CC1CCCCNC(=O)c2cccc(c2)C(=O)/N=C2\Nc3cccc(-c4ncnn4C(F)F)c3N21` (single isomer, unassigned) [Example 140, (E)-1^7-(1-(difluoromethyl)-1H-1,2,4-triazol-5-yl)-11-methyl-1^2,1^3-dihydro-1^1H-2,6-diaza-1(2,1)-benzo[d]imidazola-4(1,3)-benzenacycloundecaphane-3,5-dione], under setting [2], the IC50 came to 6 nM.

Regarding `CC1CCCCNC(=O)c2cccc(c2)C(=O)/N=C2\Nc3cccc(N4CCN(C5CC5)C4=O)c3N21` (single isomer, unassigned) [Example 141, (E)-1^7-(3-cyclopropyl-2-oxoimidazolidin-1-yl)-11-methyl-1^2,1^3-dihydro-1H-2,6-diaza-1(2,1)-benzo[d]imidazola-4(1,3)-benzenacycloundecaphane-3,5-dione], under setting [2], the IC50 stood at 15 nM.

In the case of `CC1CCCCNC(=O)c2cccc(c2)C(=O)/N=C2\Nc3cccc(N4CCN(C5CC5)C4=O)c3N21` (single isomer, unassigned) [Example 142, (E)-1^7-(3-cyclopropyl-2-oxoimidazolidin-1-yl)-11-methyl-1^2,1^3-dihydro-1H-2,6-diaza-1(2,1)-benzo[d]imidazola-4(1,3)-benzenacycloundecaphane-3,5-dione], the half-maximal inhibitory concentration (IC50) was determined as 7 nM under setting [1] and 8 nM under setting [2].

In the case of `CC1CCCCNC(=O)c2cccc(c2)C(=O)/N=C2\Nc3cccc(N4CCN(C5COC5)C4=O)c3N21` (single isomer, unassigned) [Example 143, (E)-11-methyl-1^7-(3-(oxetan-3-yl)-2-oxoimidazolidin-1-yl)-1^2,1^3-dihydro-1^1H-2,6-diaza-1(2,1)-benzo[d]imidazola-4(1,3)-benzenacycloundecaphane-3,5-dione], under setting [2], the IC50 turned out to be 14 nM.

With `CC1CCCCNC(=O)c2cccc(c2)C(=O)/N=C2\Nc3cccc(N4CCN(C5COC5)C4=O)c3N21` (single isomer, unassigned) [Example 144, (E)-11-methyl-1^7-(3-(oxetan-3-yl)-2-oxoimidazolidin-1-yl)-1^2,1^3-dihydro-1^1H-2,6-diaza-1(2,1)-benzo[d]imidazola-4(1,3)-benzenacycloundecaphane-3,5-dione], the IC50 under setting [2] turned out to be 10 nM.

As to `CNC(=O)c1cccc2nc3n(c12)C(C)CCCCNC(=O)c1cccc(c1)C(=O)N3` (centres unmarked) [Example 34, (E)-N,11-dimethyl-3,5-dioxo-1^2,1^3-dihydro-1^1H-2,6-diaza-1(2,1)-benzo[d]imidazola-4(1,3)-benzenacycloundecaphane-1^7-carboxamide], under setting [1], the IC50 stood at 2 nM.

For `CC1CCCCNC(=O)c2cccc(c2)C(=O)/N=C2\Nc3cccc(C(=O)N4CCC(F)(F)C4)c3N21` (centres unmarked) [Example 37, (E)-1^7-(3,3-difluoropyrrolidine-1-carbonyl)-11-methyl-1^2,1^3-dihydro-1^1H-2,6-diaza-1(2,1)-benzo[d]imidazola-4(1,3)-benzenacycloundecaphane-3,5-dione], under setting [1], the IC50 came to 5 nM.

Take `COC(=O)CN(C)C(=O)c1cccc2c1N1/C(=N/C(=O)c3cccc(c3)C(=O)NCCCCC1C)N2` (centres unmarked) [Example 38, methyl (E)-N-methyl-N-(11-methyl-3,5-dioxo-1^2,1^3-dihydro-1^1H-2,6-diaza-1(2,1)-benzo[d]imidazola-4(1,3)-benzenacycloundecaphane-1^7-carbonyl)glycinate]: the IC50 under setting [1] came out at 4 nM.

As to `CC1CCCCNC(=O)c2cccc(c2)C(=O)/N=C2\Nc3cccc(C(=O)N(C)C4CCC4)c3N21` (centres unmarked) [Example 39, (E)-N-cyclobutyl-N,11-dimethyl-3,5-dioxo-1^2,1^3-dihydro-1^1H-2,6-diaza-1(2,1)-benzo[d]imidazola-4(1,3)-benzenacycloundecaphane-1^7-carboxamide], the IC50 under setting [1] was 6 nM.
